Experimental data as given in patent US6737383B1, “Herbicidal oxadiazolidines” (priority 1999, dated 2004).

Experiments:
duck salad = assay: Test B flood test duck salad; assay type: in vivo, Heteranthera limosa
Outline: (§1)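 Each value is a visual injury score relative to controls, with 10 meaning complete control and 0 no effect. Evaluation took place twelve to sixteen days after the 2-leaf-stage plants were treated and kept in the greenhouse.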

velvetleaf = assay: Test B pre/postemergence velvetleaf; assay type: in vivo, Abutilon theophrasti; conditions: for Velvetleaf plant response rating: scale of 0 to 10 where 0 is no effect and 10 is complete control
Outline: (§2)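 Response is a visual 0-to-10 score relative to untreated plants, where 0 means no effect and 10 means complete control, taken twelve to sixteen days after application. Treatments went onto soil at planting and onto foliage of 1- to 4-leaf plants, using a surfactant-containing non-phytotoxic solvent.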

sugar beet = assay: Test B pre/postemergence sugar beet; assay type: in vivo, Beta vulgaris; conditions: for Sugarbeets plant response rating: scale of 0 to 10 where 0 is no effect and 10 is complete control
Outline: as §2

surinam grass = assay: Test B pre/postemergence surinam grass; assay type: in vivo, Brachiaria decumbens; conditions: for B. signalgrass plant response rating: scale of 0 to 10 where 0 is no effect and 10 is complete control
Outline: as §2

blackgrass = assay: Test B pre/postemergence blackgrass; assay type: in vivo, Alopecurus myosuroides; conditions: for Blackgrass plant response rating: scale of 0 to 10 where 0 is no effect and 10 is complete control
Outline: as §2

purple nutsedge = assay: Test B pre/postemergence purple nutsedge; assay type: in vivo, Cyperus rotundus; conditions: for Nutsedge plant response rating: scale of 0 to 10 where 0 is no effect and 10 is complete control
Outline: as §2

rice = assay: Test B flood test rice; assay type: in vivo, Oryza sativa
Outline: as §1

crabgrass = assay: Test B pre/postemergence crabgrass; assay type: in vivo, Digitaria sanguinalis; conditions: for Crabgrass plant response rating: scale of 0 to 10 where 0 is no effect and 10 is complete control
Outline: as §2

wild oat = assay: Test B pre/postemergence wild oat; assay type: in vivo, Avena fatua; conditions: for Wild oats plant response rating: scale of 0 to 10 where 0 is no effect and 10 is complete control
Outline: as §2

corn = assay: Test B pre/postemergence corn; assay type: in vivo, Zea mays; conditions: for Corn plant response rating: scale of 0 to 10 where 0 is no effect and 10 is complete control
Outline: as §2

rape = assay: Test B pre/postemergence rape; assay type: in vivo, Brassica napus; conditions: for Rape plant response rating: scale of 0 to 10 where 0 is no effect and 10 is complete control
Outline: as §2

cocklebur = assay: Test B pre/postemergence cocklebur; assay type: in vivo, Xanthium strumarium; conditions: for Cocklebur plant response rating: scale of 0 to 10 where 0 is no effect and 10 is complete control
Outline: as §2

giant foxtail = assay: Test B pre/postemergence giant foxtail; assay type: in vivo, Setaria faberii; conditions: for Giant foxtail plant response rating: scale of 0 to 10 where 0 is no effect and 10 is complete control
Outline: as §2

pigweed = assay: Test B pre/postemergence pigweed; assay type: in vivo, Amaranthus retroflexus; conditions: for Redroot pigweed plant response rating: scale of 0 to 10 where 0 is no effect and 10 is complete control
Outline: as §2

soybean = assay: Test B pre/postemergence soybean; assay type: in vivo, Glycine max; conditions: for Soybean plant response rating: scale of 0 to 10 where 0 is no effect and 10 is complete control
Outline: as §2

morningglory = assay: Test B pre/postemergence morningglory; assay type: in vivo, Ipomoea hederacea; conditions: for Morningglory plant response rating: scale of 0 to 10 where 0 is no effect and 10 is complete control
Outline: as §2

[1] = Rate 62 g/ha, flood test species, Pre-emergence, visual evaluation after twelve to sixteen days
[2] = Rate 125 g/ha, under heading Pre-emergence, flood test species, visual evaluation after twelve to sixteen days
[3] = Rate 250 g/ha, Pre-emergence, flood-test species, scale 0 to 10, 0 is no effect, 10 is complete control
[4] = Rate 500 g/ha, Pre-emergence, flood test species, scale 0 to 10 (0 no effect, 10 complete control)
[5] = Postemergence, Rate 125 g/ha, scale 0 to 10, 0 is no effect, 10 is complete control
[6] = Postemergence, Rate 250 g/ha, scale 0 to 10, 0 is no effect, 10 is complete control
[7] = Preemergence, Rate 62 g/ha, scale 0 to 10 (0 no effect, 10 complete control)
[8] = Rate 500 g/ha, Postemergence, scale 0 to 10, 0 no effect, 10 complete control

## Cc1nnsc1Cn1c(=O)on(C(=O)N(c2ccc(F)cc2)C(C)C)c1=O [Compound 380]
Duck salad; [1]
  Plant response rating, Ducksalad (0 to 10 scale, 0 is no effect, 10 is complete control): 0
Duck salad; [2]
  Ducksalad plant response rating (0 to 10 scale, 0 is no effect, 10 is complete control): 0
Duck salad; [3]
  Ducksalad plant response rating: 0
Duck salad; [4]
  Ducksalad plant response rating: 0
velvetleaf; [5]
  Plant response rating, Velvetleaf: 0
velvetleaf; [6]
  Plant response rating, Velvetleaf: 0
velvetleaf; [7]
  Plant response rating, Velvetleaf: 0
velvetleaf; Preemergence, Rate 125 g/ha
  Velvetleaf plant response rating (0 to 10 scale): 0
velvetleaf; Preemergence, Rate 250 g/ha
  Velvetleaf plant response rating: 0
velvetleaf; Preemergence, Rate 500 g/ha
  Velvetleaf plant response rating: 0
velvetleaf; Rate 62 g/ha, Postemergence
  Velvetleaf plant response rating: 0
velvetleaf; [8]
  Plant response rating, Velvetleaf: 3
Sugar beet; [5]
  Plant response rating, Sugarbeets: 0
Sugar beet; [6]
  Plant response rating, Sugarbeets: 0
Sugar beet; [7]
  Plant response rating, Sugarbeets: 0
Sugar beet; Preemergence, Rate 125 g/ha
  Sugarbeets plant response rating (0 to 10 scale): 0
Sugar beet; Preemergence, Rate 250 g/ha
  Sugarbeets plant response rating: 0
Sugar beet; Preemergence, Rate 500 g/ha
  Sugarbeets plant response rating: 0
Sugar beet; Rate 62 g/ha, Postemergence
  Sugarbeets plant response rating: 0
Sugar beet; [8]
  Plant response rating, Sugarbeets: 0
Surinam grass; [5]
  Plant response rating, B. signalgrass: 0
Surinam grass; [6]
  Plant response rating, B. signalgrass: 0
Surinam grass; [7]
  Plant response rating, B. signalgrass: 0
Surinam grass; Preemergence, Rate 125 g/ha
  B. signalgrass plant response rating (0 to 10 scale, 0 is no effect, 10 is complete control): 0
Surinam grass; Preemergence, Rate 250 g/ha
  B. signalgrass plant response rating: 0
Surinam grass; Preemergence, Rate 500 g/ha
  B. signalgrass plant response rating: 0
Surinam grass; Rate 62 g/ha, Postemergence
  B. signalgrass plant response rating: 0
Surinam grass; [8]
  Plant response rating, B. signalgrass: 0
blackgrass; [5]
  Plant response rating, Blackgrass: 0
blackgrass; [6]
  Plant response rating, Blackgrass: 0
blackgrass; [7]
  Plant response rating, Blackgrass: 0
blackgrass; Preemergence, Rate 125 g/ha
  Blackgrass plant response rating (0 to 10 scale): 0
blackgrass; Preemergence, Rate 250 g/ha
  Blackgrass plant response rating: 0
blackgrass; Preemergence, Rate 500 g/ha
  Blackgrass plant response rating: 2
blackgrass; Rate 62 g/ha, Postemergence
  Blackgrass plant response rating: 0
blackgrass; [8]
  Plant response rating, Blackgrass: 0
Purple nutsedge; [5]
  Plant response rating, Nutsedge: 0
Purple nutsedge; [6]
  Plant response rating, Nutsedge: 0
Purple nutsedge; [7]
  Plant response rating, Nutsedge: 0
Purple nutsedge; Preemergence, Rate 125 g/ha
  Nutsedge plant response rating (0 to 10 scale): 0
Purple nutsedge; Preemergence, Rate 250 g/ha
  Nutsedge plant response rating: 0
Purple nutsedge; Preemergence, Rate 500 g/ha
  Nutsedge plant response rating: 0
Purple nutsedge; Rate 62 g/ha, Postemergence
  Nutsedge plant response rating: 0
Purple nutsedge; [8]
  Plant response rating, Nutsedge: 0
rice; [1]
  Plant response rating, Rice (0 to 10 scale, 0 is no effect, 10 is complete control): 0
rice; [2]
  Rice plant response rating (0 to 10 scale, 0 is no effect, 10 is complete control): 0
rice; [3]
  Rice plant response rating: 0
rice; [4]
  Rice plant response rating: 0
crabgrass; [5]
  Plant response rating, Crabgrass: 1
crabgrass; [6]
  Plant response rating, Crabgrass: 2
crabgrass; [7]
  Plant response rating, Crabgrass: 1
crabgrass; Preemergence, Rate 125 g/ha
  Crabgrass plant response rating (0 to 10 scale): 7
crabgrass; Preemergence, Rate 250 g/ha
  Crabgrass plant response rating: 7
crabgrass; Preemergence, Rate 500 g/ha
  Crabgrass plant response rating: 9
crabgrass; Rate 62 g/ha, Postemergence
  Crabgrass plant response rating: 0
crabgrass; [8]
  Plant response rating, Crabgrass: 7
Wild oat; [5]
  Plant response rating, Wild oats: 0
Wild oat; [6]
  Plant response rating, Wild oats: 0
Wild oat; [7]
  Plant response rating, Wild oats: 0
Wild oat; Preemergence, Rate 125 g/ha
  Wild oats plant response rating (0 to 10 scale): 0
Wild oat; Preemergence, Rate 250 g/ha
  Wild oats plant response rating: 0
Wild oat; Preemergence, Rate 500 g/ha
  Wild oats plant response rating: 4
Wild oat; Rate 62 g/ha, Postemergence
  Wild oats plant response rating: 0
Wild oat; [8]
  Plant response rating, Wild oats: 0
corn; [5]
  Plant response rating, Corn: 0
corn; [6]
  Plant response rating, Corn: 0
corn; [7]
  Plant response rating, Corn: 0
corn; Preemergence, Rate 125 g/ha
  Corn plant response rating (0 to 10 scale): 0
corn; Preemergence, Rate 250 g/ha
  Corn plant response rating: 0
corn; Preemergence, Rate 500 g/ha
  Corn plant response rating: 0
corn; Rate 62 g/ha, Postemergence
  Corn plant response rating: 0
corn; [8]
  Plant response rating, Corn: 0
rape; [5]
  Plant response rating, Rape: 0
rape; [6]
  Plant response rating, Rape: 0
rape; [7]
  Plant response rating, Rape: 0
rape; Preemergence, Rate 125 g/ha
  Rape plant response rating (0 to 10 scale): 0
rape; Preemergence, Rate 250 g/ha
  Rape plant response rating: 0
rape; Preemergence, Rate 500 g/ha
  Rape plant response rating: 0
rape; Rate 62 g/ha, Postemergence
  Rape plant response rating: 0
rape; [8]
  Plant response rating, Rape: 0
cocklebur; [5]
  Plant response rating, Cocklebur: 0
cocklebur; [6]
  Plant response rating, Cocklebur: 0
cocklebur; [7]
  Plant response rating, Cocklebur: 0
cocklebur; Preemergence, Rate 125 g/ha
  Cocklebur plant response rating (0 to 10 scale): 0
cocklebur; Preemergence, Rate 250 g/ha
  Cocklebur plant response rating: 0
cocklebur; Rate 62 g/ha, Postemergence
  Cocklebur plant response rating: 0
cocklebur; [8]
  Plant response rating, Cocklebur: 6
Giant foxtail; [5]
  Plant response rating, Giant foxtail: 2
Giant foxtail; [6]
  Plant response rating, Giant foxtail: 9
Giant foxtail; [7]
  Plant response rating, Giant foxtail: 2
Giant foxtail; Preemergence, Rate 125 g/ha
  Giant foxtail plant response rating (0 to 10 scale): 8
Giant foxtail; Preemergence, Rate 250 g/ha
  Giant foxtail plant response rating: 9
Giant foxtail; Preemergence, Rate 500 g/ha
  Giant foxtail plant response rating: 10
Giant foxtail; Rate 62 g/ha, Postemergence
  Giant foxtail plant response rating: 1
Giant foxtail; [8]
  Plant response rating, Giant foxtail: 9
pigweed; [5]
  Plant response rating, Redroot pigweed: 0
pigweed; [6]
  Plant response rating, Redroot pigweed: 0
pigweed; [7]
  Plant response rating, Redroot pigweed: 0
pigweed; Preemergence, Rate 125 g/ha
  Redroot pigweed plant response rating (0 to 10 scale): 3
pigweed; Preemergence, Rate 250 g/ha
  Redroot pigweed plant response rating: 3
pigweed; Preemergence, Rate 500 g/ha
  Redroot pigweed plant response rating: 6
pigweed; Rate 62 g/ha, Postemergence
  Redroot pigweed plant response rating: 0
pigweed; [8]
  Plant response rating, Redroot pigweed: 5
soybean; [5]
  Plant response rating, Soybean: 1
soybean; [6]
  Plant response rating, Soybean: 1
soybean; [7]
  Plant response rating, Soybean: 0
soybean; Preemergence, Rate 125 g/ha
  Soybean plant response rating (0 to 10 scale): 0
soybean; Preemergence, Rate 250 g/ha
  Soybean plant response rating: 0
soybean; Preemergence, Rate 500 g/ha
  Soybean plant response rating: 0
soybean; Rate 62 g/ha, Postemergence
  Soybean plant response rating: 0
soybean; [8]
  Plant response rating, Soybean: 1
morningglory; [5]
  Plant response rating, Morningglory: 5
morningglory; [6]
  Plant response rating, Morningglory: 5
morningglory; [7]
  Plant response rating, Morningglory: 0
morningglory; Preemergence, Rate 125 g/ha
  Morningglory plant response rating (0 to 10 scale): 0
morningglory; Preemergence, Rate 250 g/ha
  Morningglory plant response rating: 0
morningglory; Preemergence, Rate 500 g/ha
  Morningglory plant response rating: 0
morningglory; Rate 62 g/ha, Postemergence
  Morningglory plant response rating: 5
morningglory; [8]
  Plant response rating, Morningglory: 10
